Laboratory results: patent publication US10392404B2, “Compounds and compositions as kinase inhibitors” (NOVARTIS AG, priority 2014, dated 2019)

Experiments:
[1] = biological target: T1, C-RAF (Homo sapiens, UniProt P04049, Y340E/Y341E); assay: In vitro Raf activity determination (Alpha Screen, biotinylated kinase-dead MEK1 substrate), C-Raf; assay type: biochemical; conditions: c-Raf approximately 4 nM; ATP 1 μM; pre-incubation 60 minutes; reaction 1 hour at room temperature
T1 construct: His tag (implied by nickel chromatography) (cleaved yes); StrepII tag (cleaved yes); made in house; host or cells: Sf9 insect cells (baculovirus), CRAF and h14-3-3 zeta co-expressed; MEK1 substrate from E. coli
From the text: CRAF cDNA was subcloned as full length protein, with Y340E and Y341E activating mutations, into a baculovirus expression vector for Sf9 insect cell expression. h14-3-3 zeta cDNA was subcloned into a baculovirus expression vector for SF9 insect cell expression. Sf9 cells co-expressing both proteins were lysed and subjected to immobilized nickel chromatography and eluted with Imidazole. A second column (StrepII binding column) was used and eluted with desthiobiotin. Protein Tags were removed using Prescission enzyme and the protein was further purified using a flowthrough step to remove tags.
C-Raf TR refers to a truncated C-Raf protein, a Δ1-324 deletion mutant. C-Raf FL refers to the full-length C-Raf protein.
(§1) Full length MEK1 with an inactivating K97R ATP binding site mutation is utilized as a RAF substrate. The MEK1 cDNA was subcloned with an N-terminal (his)6 tag into a vector for E. Coli expression. The MEK1 substrate was purified from E. Coli lysate by nickel affinity chromatography followed by anion exchange. The final MEK1 preparation was biotinylated (Pierce EZ-Link Sulfo-NHS-LC-Biotin) and concentrated.
(§2) Assay Materials: Assay buffer is 50 mM Tris, pH 7.5, 15 mM MgCl2, 0.01% Bovine Serum Albumin (BSA) and 1 mM dithiothreitol (DTT); Stop buffer is 60 mM ethylenediaminetetraacetic acid (EDTA) and 0.01% Tween® 20; b-Raf (V600E), active; biotinylated Mek, kinase dead; Alpha Screen detection kit (available from PerkinElmer™, #6760617R); Anti phospho-MEK1/2 (available from Cell Signaling Technology, Inc. #9121); 384 well low volume assay plates (White Greiner® plates).
(§3) Assay conditions: b-Raf (V600E) approximately 4 pM; c-Raf approximately 4 nM; biotinylated Mek, kinase dead approximately 10 nM; ATP 10 μM for BRAF (V600E) and 1 μM for CRAF; Pre-incubation time with compounds 60 minutes at room temperature; Reaction time 1 or 3 hours at room temperature.
(§4) Assay protocol: Raf and biotinylated Mek (kinase dead) were combined at 2× final concentrations in assay buffer (50 mM Tris, pH 7.5, 15 mM MgCl2, 0.01% BSA and 1 mM DTT) and dispensed […] per well in assay plates (Greiner white 384 well assay plates #781207) containing […] of 40× of a Raf kinase inhibitor test compound diluted in 100% DMSO. The plate was incubated for 60 minutes at room temperature. The Raf kinase activity reaction was started by the addition of […] per well of 2×ATP diluted in assay buffer. After 3 hours (b-Raf(V600E)) or 1 hour (c-Raf). The reactions were stopped and the phosphorylated product was measured using a rabbit anti-p-MEK (Cell Signaling, #9121) antibody and the Alpha Screen IgG (ProteinA) detection Kit (PerkinElmer #6760617R), by the addition of […] to the well of a mixture of the antibody (1:2000 dilution) and detection beads (1:2000 dilution of both beads) in Stop/bead buffer (25 mM EDTA, 50 mM Tris, pH 7.5, 0.01% Tween20). The additions were carried out under dark conditions to protect the detection beads from light. A lid was placed on top of the plate and incubated for 1 hour at room temperature, after which the luminescence was read on a PerkinElmer Envision instrument. The concentration of each compound for 50% inhibition (IC50) was calculated by non-linear regression using XL Fit data analysis software.

[2] = biological target: T2, b-Raf (V600E) (Homo sapiens, UniProt P15056, V600E); assay: In vitro Raf activity determination (Alpha Screen, biotinylated kinase-dead MEK1 substrate), B-Raf; assay type: biochemical; conditions: b-Raf (V600E) approximately 4 pM; ATP 10 μM; pre-incubation 60 minutes; reaction 3 hours at room temperature
T2 construct: made in house
Experimental: as §1, §2, §3, §4

T1 sequence (P04049 whole entry Y340E/Y341E): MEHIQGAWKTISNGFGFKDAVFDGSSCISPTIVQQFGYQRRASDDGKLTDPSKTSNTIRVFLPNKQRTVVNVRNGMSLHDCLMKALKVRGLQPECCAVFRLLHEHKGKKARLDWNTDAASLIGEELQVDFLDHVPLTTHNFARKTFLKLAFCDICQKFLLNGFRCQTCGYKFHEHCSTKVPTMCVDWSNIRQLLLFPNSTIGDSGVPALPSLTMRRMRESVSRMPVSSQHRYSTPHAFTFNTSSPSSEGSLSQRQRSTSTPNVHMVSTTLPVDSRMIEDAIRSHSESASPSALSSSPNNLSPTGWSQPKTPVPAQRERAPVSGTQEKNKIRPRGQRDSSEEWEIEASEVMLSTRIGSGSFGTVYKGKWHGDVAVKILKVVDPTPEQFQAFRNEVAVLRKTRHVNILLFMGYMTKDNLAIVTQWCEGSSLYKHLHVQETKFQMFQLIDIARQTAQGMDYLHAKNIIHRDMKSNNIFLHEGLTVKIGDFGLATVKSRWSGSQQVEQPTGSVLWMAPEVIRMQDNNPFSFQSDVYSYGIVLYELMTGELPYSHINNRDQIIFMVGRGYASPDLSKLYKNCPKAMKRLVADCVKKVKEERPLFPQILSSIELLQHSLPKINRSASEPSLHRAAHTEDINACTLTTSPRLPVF
T1 sequence (P63104 whole entry partner): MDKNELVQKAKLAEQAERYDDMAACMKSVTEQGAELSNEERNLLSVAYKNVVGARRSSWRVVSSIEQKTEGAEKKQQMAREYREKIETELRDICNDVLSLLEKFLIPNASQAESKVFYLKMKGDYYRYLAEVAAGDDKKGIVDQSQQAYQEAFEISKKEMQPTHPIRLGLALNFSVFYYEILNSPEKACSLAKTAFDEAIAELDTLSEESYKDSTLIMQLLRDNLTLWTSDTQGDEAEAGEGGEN
T2 sequence (P15056 whole entry V600E): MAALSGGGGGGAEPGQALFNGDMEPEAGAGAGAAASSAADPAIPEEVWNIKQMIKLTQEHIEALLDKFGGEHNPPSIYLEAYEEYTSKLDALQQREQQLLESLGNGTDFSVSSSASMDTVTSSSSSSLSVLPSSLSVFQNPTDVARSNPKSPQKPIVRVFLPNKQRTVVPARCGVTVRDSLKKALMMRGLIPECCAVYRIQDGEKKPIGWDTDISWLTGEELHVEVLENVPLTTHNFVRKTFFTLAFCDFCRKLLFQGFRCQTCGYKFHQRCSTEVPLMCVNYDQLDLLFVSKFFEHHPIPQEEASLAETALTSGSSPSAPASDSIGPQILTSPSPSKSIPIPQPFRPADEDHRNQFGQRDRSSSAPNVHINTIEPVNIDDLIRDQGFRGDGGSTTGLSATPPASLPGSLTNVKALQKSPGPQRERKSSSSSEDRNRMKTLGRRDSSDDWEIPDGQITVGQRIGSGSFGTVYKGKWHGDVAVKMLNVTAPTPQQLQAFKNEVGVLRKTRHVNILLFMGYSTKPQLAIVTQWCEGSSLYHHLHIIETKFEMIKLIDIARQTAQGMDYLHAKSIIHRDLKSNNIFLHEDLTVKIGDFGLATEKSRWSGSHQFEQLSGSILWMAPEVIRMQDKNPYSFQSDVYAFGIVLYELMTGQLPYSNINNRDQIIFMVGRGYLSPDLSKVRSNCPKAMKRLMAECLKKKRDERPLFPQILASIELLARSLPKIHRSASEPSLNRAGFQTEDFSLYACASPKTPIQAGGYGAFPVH

Structure (SMILES) | IC50 [1] | IC50 [2]
Cc1ncc(NC(=O)c2ccnc(C(C)(C)C#N)c2)cc1-c1cnc(NC2CCOC2)c(C#N)c1 (stereo in doubt) [Example 78a, (S)-N-(5′-cyano-2-methyl-6′-((tetrahydrofuran-3-yl)amino)-[3,3′-bipyridin]-5-yl)-2-(2-cyanopropan-2-yl)isonicotinamide] | 3.16 nM | 12.3 nM
Cc1ncc(NC(=O)c2ccnc(C(C)(C)C#N)c2)cc1-c1cnc(NC2CCOC2)c(C#N)c1 (stereo in doubt) [Example 78b, (R)-N-(5′-cyano-2-methyl-6′-((tetrahydrofuran-3-yl)amino)-[3,3′-bipyridin]-5-yl)-2-(2-cyanopropan-2-yl)isonicotinamide] | 2.41 nM | 10.3 nM
Cc1ccc(NC(=O)c2ccnc(C(C)(C)C#N)c2)cc1-c1cnc(N)c(C#N)c1 [Example 2, N-(3-(6-amino-5-cyanopyridin-3-yl)-4-methylphenyl)-2-(2-cyanopropan-2-yl) isonicotinamide] | 0.661 nM | 3.07 nM
Cc1ccc(C(=O)Nc2cccc(C(F)(F)F)c2)cc1-c1cnc(N)c(C#N)c1 [Example 3, 3-(6-amino-5-cyanopyridin-3-yl)-4-methyl-N-(3-(trifluoromethyl)phenyl)benzamide] | 0.125 nM | 0.991 nM
Cc1ncc(NC(=O)c2cccc(C(F)(F)F)c2)cc1-c1cnc(N)c(C#N)c1 [Example 4, N-(6′-amino-5′-cyano-2-methyl-[3,3′-bipyridin]-5-yl)-3-(trifluoromethyl) benzamide] | 0.211 nM | 1.63 nM
CNc1ncc(-c2cc(NC(=O)c3cccc(C(F)(F)F)c3)ccc2C)cc1C#N [Example 5, N-(3-(5-cyano-6-(methylamino)pyridin-3-yl)-4-methylphenyl)-3-(trifluoromethyl) benzamide] | 0.18 nM | 1.33 nM
CNc1ncc(-c2cc(NC(=O)c3ccnc(C(C)(C)C#N)c3)ccc2C)cc1C#N [Example 6, N-(3-(5-cyano-6-(methylamino)pyridin-3-yl)-4-methylphenyl)-2-(2-cyanopropan-2-yl)isonicotinamide] | 0.379 nM | 2.18 nM
CNc1ncc(-c2cc(C(=O)Nc3cccc(C(F)(F)F)c3)ccc2C)cc1C#N [Example 7, 3-(5-cyano-6-(methylamino)pyridin-3-yl)-4-methyl-N-(3-(trifluoromethyl)phenyl) benzamide] | 0.566 nM | 4.44 nM
CNc1ncc(-c2cc(NC(=O)c3cccc(C(F)(F)F)c3)cnc2C)cc1C#N [Example 8, N-(5′-cyano-2-methyl-6′-(methylamino)-[3,3′-bipyridin]-5-yl)-3-(trifluoromethyl) benzamide] | 0.25 nM | 1.98 nM
Cc1ccc(NC(=O)c2ccnc(C(C)(C)C#N)c2)cc1-c1cnc(N)c(C#N)c1C [Example 9, N-(3-(6-amino-5-cyano-4-methylpyridin-3-yl)-4-methylphenyl)-2-(2-cyanopropan-2-yl)isonicotinamide] | 6.55 nM | 60.8 nM
Cc1ccc(C(=O)Nc2cccc(C(F)(F)F)c2)cc1-c1cnc(N)c(C#N)c1C [Example 11, 3-(6-amino-5-cyano-4-methylpyridin-3-yl)-4-methyl-N-(3-(trifluoromethyl)phenyl)benzamide] | 0.606 nM | 9.79 nM
Cc1ccc(NC(=O)c2ccnc(C(C)(C)C#N)c2)cc1-c1cc(C#N)cnc1N [Example 12, N-(3-(2-amino-5-cyanopyridin-3-yl)-4-methylphenyl)-2-(2-cyanopropan-2-yl)isonicotinamide] | 1.81 nM | 27.8 nM
Cc1ccc(NC(=O)c2cccc(C(F)(F)F)c2)cc1-c1cc(C#N)cnc1N [Example 13, N-(3-(2-amino-5-cyanopyridin-3-yl)-4-methylphenyl)-3-(trifluoromethyl) benzamide] | 0.284 nM | 5.61 nM
Cc1ccc(NC(=O)c2cccc(C(F)(F)F)c2)cc1-c1cc(C#N)c[nH]c1=O [Example 14, N-(3-(5-cyano-2-oxo-1,2-dihydropyridin-3-yl)-4-methylphenyl)-3-(trifluoromethyl) benzamide] | 0.614 nM | 11.2 nM
Cc1ccc(NC(=O)c2cccc(C(F)(F)F)c2)cc1-c1cnc(N(C)C)c(C#N)c1 [Example 15, N-(3-(5-cyano-6-(dimethylamino)pyridin-3-yl)-4-methylphenyl)-3-(trifluoromethyl) benzamide] | 0.0734 nM | 0.566 nM
Cc1ccc(NC(=O)c2ccnc(C(C)(C)C#N)c2)cc1-c1cnc(N(C)C)c(C#N)c1 [Example 16, N-(3-(5-cyano-6-(dimethylamino)pyridin-3-yl)-4-methylphenyl)-2-(2-cyanopropan-2-yl)isonicotinamide] | 0.216 nM | 1.53 nM
Cc1ccc(NC(=O)c2cccc(C(F)(F)F)c2)cc1-c1cnc(NC2CC2)c(C#N)c1 [Example 17, N-(3-(5-cyano-6-(cyclopropylamino)pyridin-3-yl)-4-methylphenyl)-3-(trifluoromethyl) benzamide] | 0.323 nM | 2.28 nM
Cc1ccc(NC(=O)c2cccc(C(F)(F)F)c2)cc1-c1cnc(NC(C)C)c(C#N)c1 [Example 18, N-(3-(5-cyano-6-(isopropylamino)pyridin-3-yl)-4-methylphenyl)-3-(trifluoromethyl) benzamide] | 0.386 nM | 3.44 nM
Cc1ccc(NC(=O)c2ccnc(C(C)(C)C#N)c2)cc1-c1cnc(NC2CC2)c(C#N)c1 [Example 19, N-(3-(5-cyano-6-(cyclopropylamino)pyridin-3-yl)-4-methylphenyl)-2-(2-cyanopropan-2-yl)isonicotinamide] | 0.397 nM | 2.15 nM
Cc1ccc(NC(=O)c2ccnc(C(C)(C)C#N)c2)cc1-c1cnc(NC(C)C)c(C#N)c1 [Example 20, N-(3-(5-cyano-6-(isopropylamino)pyridin-3-yl)-4-methylphenyl)-2-(2-cyanopropan-2-yl)isonicotinamide] | 0.467 nM | 1.67 nM
Cc1ccc(NC(=O)c2ccnc(C(F)(F)F)c2)cc1-c1cnc(NC2CC2)c(C#N)c1 [Example 21, N-(3-(5-cyano-6-(cyclopropylamino)pyridin-3-yl)-4-methylphenyl)-2-(trifluoromethyl) isonicotinamide] | 0.103 nM | 0.575 nM
Cc1ccc(NC(=O)c2ccnc(C(F)(F)F)c2)cc1-c1cnc(NC(C)C)c(C#N)c1 [Example 22, N-(3-(5-cyano-6-(isopropylamino)pyridin-3-yl)-4-methylphenyl)-2-(trifluoromethyl) isonicotinamide] | 0.314 nM | 1.25 nM
CCNc1ncc(-c2cc(NC(=O)c3cccc(C(F)(F)F)c3)ccc2C)cc1C#N [Example 23, N-(3-(5-cyano-6-(ethylamino)pyridin-3-yl)-4-methylphenyl)-3-(trifluoromethyl) benzamide] | 0.247 nM | 1.46 nM
CCNc1ncc(-c2cc(NC(=O)c3ccnc(C(F)(F)F)c3)ccc2C)cc1C#N [Example 24, N-(3-(5-cyano-6-(ethylamino)pyridin-3-yl)-4-methylphenyl)-2-(trifluoromethyl) isonicotinamide] | 0.123 nM | 0.805 nM
Cc1cc(C(=O)Nc2cnc(C)c(-c3cnc(N(C)C)c(C#N)c3)c2)n(C)n1 [Example 265, N-(5′-cyano-6′-(dimethylamino)-2-methyl-[3,3′-bipyridin]-5-yl)-1,3-dimethyl-1H-pyrazole-5-carboxamide] | 312 nM | 
